Reference: patent US6306432A, “High and low load formulations of IGF-I in multivesicular liposomes” (Chiron Corporation, priority 1997, dated 2001)
Where a SMILES comes first, the peptide text is derived from it.

Legend:
[1] = Osmolarity of sucrose and glycylglycine solutions and of the first aqueous component; type: physicochemical
Text: Drug loading in MVLs is modulated by controlling the osmolarity of the first aqueous component used during manufacture of the MVLs. Osmolarity is the sum of the molar concentrations of solutes present in an aqueous solution. If the solute is present in a dissociated, ionized or aggregated form, osmolarity is defined as the sum of the molar concentrations of the dissociated, ionized or aggregated forms. The solutes that contribute to the osmolarity of an aqueous solution include the IGF-I, and osmotic excipients that are to be encapsulated during manufacture of MVLs. The contribution to the osmolarity of a solution made by any solute in the solution is approximately equivalent to the weight concentration of the solute in the solution (e.g., mg/mL) divided by its molecular weight. Thus, as a general principle, for a given weight concentration, the larger the molecular weight of a solute, the smaller the osmolarity of the solute, and the smaller the contribution of that solute to the overall osmolarity of the solution. It is also possible to reduce the osmolarity of the first aqueous component by reducing the concentration of the active agent. This method will lead to a lower loading of IGF-I if the concentration of other solutes in the first aqueous component remain constant.

[2] = Solubility of IGF-I in aqueous solution versus pH; type: physicochemical
Experimental: Applicants have also discovered a second parameter that must be taken into consideration in determining the composition of the first aqueous component during manufacture of the IGF-I formulations of this invention. The concentration of IGF-I in solution in the first aqueous component during manufacture is directly proportional to the amount of IGF-I that can be loaded in any give formulation. […] Further studies have shown that up to about 300 mg/mL of IGF-I can be solubilized at a pH below 5. Thus, to obtain and maintain sufficient IGF-I in solution in the first aqueous solution, a buffer or acid is also added to it during manufacture to assure a high enough concentration of dissolved IGF-I in the first aqueous component to obtain a final MVL product containing the desired loading of the drug. For the low load formulations, the pH of the first aqueous component is generally adjusted to a value within the range of 1 to about 5, while for high load formulations the pH range is between 2 and 4.8.

[3] = test system: MG-63 cells; experiment: Mitogenic bioassay, MG-63 cells, MTT stain; type: cell-based, human; details: standard control in mitogenic assay
[4] = In vivo pharmacokinetics, serum IGF-I after subcutaneous injection in rats, low load versus free IGF-I; design: species or system rat; details: 20 mg/kg s.c.
Experimental: In-vivo studies. The pharmacokinetic behavior of a low load MVL formulation containing IGF-I was compared to that of unencapsulated IGF-I after subcutaneous injections (lower back) in rats. 20 mg/kg doses of either free IGF-I or a MVL formulation or IGF-I prepared from a stock solution of 5 mg/ml IGF-I was injected into each rat, with 3 rats per group. Sera were collected at various times up to 8 days post injection, and assayed for IGF-I using an IGF-I ELISA kits (DSL-10-5600) (Diagnostic Systems Laboratories (DSL), Webster, Tex.) according to the manufacturer's instructions. The pharmacokinetic parameters were calculated using the WinNonlin program (Scientific Consulting Inc.) and a non-compartmental model.

Osmolarity ([1]; 0.5 w/v %)	Osmolarity ([1]; 1.0 w/v %)	Osmolarity ([1]; 1.5 w/v %)	Osmolarity ([1]; 2.0 w/v %)	Osmolarity ([1]; 2.5 w/v %)	Osmolarity ([1]; 3.0 w/v %)	Osmolarity ([1]; 4.0 w/v %)	Osmolarity ([1]; 5.0 w/v %)	Osmolarity ([1]; 6.0 w/v %)	Osmolarity ([1]; 7.0 w/v %)	Osmolarity ([1]; 8.0 w/v %)	Compound	Solubility of IGF-I in aqueous solution ([2]; at a pH of about 5)	IGF-I solubilized ([2]; pH below 5)	Bioactivity of standard rhIGF-I ([3]; listed as recombinant human IGF-I)	Bioactivity of standard rhIGF-I ([3]; listed as rhIGF-I)	Time after which free IGF-I is cleared [4]
38 mOsm	76 mOsm	114 mOsm	152 mOsm	189 mOsm	227 mOsm	303 mOsm	379 mOsm	455 mOsm	530 mOsm	606 mOsm	NCC(=O)NCC(=O)O [Glycylglycine, glycylglycine] (H-Gly-Gly-OH)	–	–	–	–	–
15 mOsm	30 mOsm	45 mOsm	60 mOsm	76 mOsm	91 mOsm	123 mOsm	156 mOsm	190 mOsm	225 mOsm	261 mOsm	OC[C@H]1O[C@@](CO)(O[C@H]2O[C@H](CO)[C@@H](O)[C@H](O)[C@H]2O)[C@@H](O)[C@@H]1O [sucrose]	–	–	–	–	–
–	–	–	–	–	–	–	–	–	–	–	Insulin-like Growth Factor I [IGF-I]	drops precipitously at a pH of about 5	up to 300 mg/mL	1.3×10^3 international units (IU)/mL	~ 1.3×10^3 international units (IU)/mL	about 1 day
